In publication PMC10535864, “Novel Aminopyrimidine-2,4-diones, 2-Thiopyrimidine-4-ones, and 6-Arylpteridines as Dual-Target Inhibitors of BRD4/PLK1: Design, Synthesis, Cytotoxicity, and Computational Studies” (Pharmaceuticals, 2023):
Where two headings read alike, the source gives them in different places.

Legend:
[1] = target: T1, BRD4 (BD2) (Homo sapiens, UniProt O60885); test: BRD4 inhibitory activity assay (AlphaLISA Bromodomain Assay); type: binding; conditions: for %inh: BRD4 Lab Report; for IC50: mean of three independent experiments, read-out: BRD4 IC50 ± SD;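 on all read-outs here: in vitro inhibition of recombinant BRD4 BD2 bromodomain binding to a BET bromodomain ligand, read by AlphaLISA proximity signal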
T1 construct: BRD4 (BD2) should be thawed on ice; purchased
Description: The BRD4 and PLK1 inhibitory assays were carried out in vitro in accordance with the manufacturer’s instructions; BRD4 was assessed using AlphaLISA Bromodomain Assay Protocol [67], and PLK1 kinase was tested using the ADP-Glo™ Kinase Assay Protocol [68], as detailed in the Supplementary file.
The BRD4 and PLK1 inhibitory assays were carried out in vitro in accordance with the manufacturer's instructions; BRD4 was assessed using AlphaLISA Bromodomain Assay Protocol [67], and PLK1 kinase was tested using the ADP-Glo™ Kinase Assay Protocol [68],
The master mixture was prepared as follows: N wells × (2.5 µL 3x BRD Homogeneous Assay Buffer 1 + 1 µL BET Bromodomain Ligand + 1.5 µL H2O). BRD4 (BD2) should be thawed on ice. Simply, the protein-containing tube was spined to recover the full content of the tube after the firstthaw. Both proteins should be aliquoted into single-use aliquots. Immediately, any remaining undiluted protein should be stored in aliquots at -80°C. BRD4 (BD2) was diluted in 1x BRD Homogeneous Assay Buffer 1 at 4 ng/µL. The diluted proteins were kept on ice until they were used. 5 µl of the master mixture is added to each well designated for the “Positive Control”, “Test Inhibitor”, and “Blank”. For the “Substrate Control”, 2.5 µL 3x BRD Homogeneous Assay Buffer 1 + 1 µL Non-acetylated Ligand 1 + 1.5 µL H2O is added. Each “Test Inhibitor” well received 2.5 µL of inhibitor solution, while the “Positive
Control”, “Substrate Control”, and “Blank” wells received 2.5 µL of the same solution without inhibitor (inhibitor buffer). Then, the “Blank” well is filled with 2.5 µL of 1x BRD Homogeneous Assay Buffer 1. After that, GSH
10 µL per well is added, the plate isshaken, and itis incubated at room temperature for 30 minutes. Streptavidin-
10 µL is added per well and incubated at room temperature for further 15 – 30 minutes [67]. The Alpha counts were read using the EnVision® multimode plate reader with the standard Alpha detection settings.

[2] = tested on: HT-29 colorectal adenocarcinoma cells; test: MTT cytotoxicity assay, HT-29; type: cell-based; conditions: for viability at 0.312 µM / viability at 0.625 µM / viability at 1.25 µM / viability at 2.5 µM / viability at 5 µM / viability at 10 µM / IC50: Homo sapiens, HT-29; for Selectivity Indices (SI) HT-29: SI = IC50 normal cells (Vero)/IC50 cancer cells
Summary of the method: (§1)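 Cells seeded at 1 X 10^5 cells/mL and grown 24 h at 37°C to a monolayer, then exposed to two-fold compound dilutions in RPMI with 2% serum, six doses. MTT added for 4 h at 37°C, formazan dissolved in DMSO, OD read at 560 nm minus 620 nm background. IC50 from dose-response.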

[3] = MTT cytotoxicity assay, U-937; type: cell-based; conditions: Homo sapiens, U-937, U937, MTT;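 further: Six-dose MTT colorimetric assay on cell monolayers, formazan absorbance read at 560 nm with 620 nm background removed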
[4] = tested on: U-937 renal cancer cells; test: MTT cytotoxicity assay, U-937; type: cell-based; conditions: for IC50: Homo sapiens, U-937; for Selectivity Indices (SI) U-937: SI = IC50 normal cells (Vero)/IC50 cancer cells;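 on all read-outs here: Six-dose MTT colorimetric assay on cell monolayers, formazan absorbance read at 560 nm with 620 nm background removed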
[5] = tested on: MDA-MB-231 breast cancer cells; test: MTT cytotoxicity assay, MDA-MB-231; type: cell-based; conditions: for IC50 / viability at 0.312 µM / viability at 0.625 µM / viability at 1.25 µM / viability at 2.5 µM / viability at 5 µM / viability at 10 µM: Homo sapiens; for IC50 / viability at 0.312 µM / viability at 0.625 µM / viability at 1.25 µM / viability at 2.5 µM / viability at 5 µM / viability at 10 µM / Toxicity %: MDA-MB-231; for Selectivity Indices (SI) MDA-MB-231: SI = IC50 normal cells (Vero)/IC50 cancer cells, ≥5 highly, >2 moderately, <2 non-selective
Summary of the method: as §1

[6] = MTT cytotoxicity assay, normal Vero cells; type: cell-based; conditions: African green monkey, normal Vero cells, MTT; for IC50: mean of three independent experiments ± SD, read-out: In Vitro Cytotoxicity against Normal Cells IC50 Value, Vero Cells; for viability at 0.312 µM / viability at 0.625 µM / viability at 1.25 µM / viability at 2.5 µM / viability at 5 µM / viability at 10 µM: Vero
Description: (§2) Using a six-dose MTT colorimetric assay [44, 66], all new synthetic compounds were tested for cytotoxicity against three cancer cell lines: MDA-MB-231 breast cancer cells, HT-29 colorectal adenocarcinoma cells, and U-937 renal cancer cells. […] These cell lines were supplied by ATCC (American Type Culture Collection) via the Holding company for biological products and vaccines (VACSERA, Cairo, Egypt). The reference control used was Methotrexate.
1.1.In-vitro cytotoxicity screening
(§3) Using a six-dose MTT colorimetric assay [44, 66], allnew synthetic compounds were tested for cytotoxicity against three cancer cell lines: MDA-MB-231 breast cancer cells,HT-29 colorectal adenocarcinoma cells, and U-937 renal
(§4) The cell lines were supplied by ATCC (American Type Culture Collection). The reference control used was Methotrexate. The cytotoxic activities of the examined compounds were quantified by inoculating a 96-well tissue culture plate with 1 X 10^5 cells / mL (100 uL/well) and incubating it at 37°C for 24 hours to develop a complete monolayer sheet. After forming a confluent sheet of cells, the growth medium was decanted from 96-well microtiter plates, and the cell monolayer was washed twice with wash media. Two-fold dilutions of tested samples were made in RPMI medium with 2% serum (maintenance medium), and 0.1 mL of each dilution was tested in different wells, with three wells serving as controls and receiving only maintenance medium. Following that, the plate was incubated at 37°C and examined. Cells were investigated for any physical signs of toxicity, such as partial or complete monolayer loss, rounding, shrinkage, or cell granulation. MTT solution was prepared (5mg/ml in PBS) (BIO BASIC CANADA INC), and 20 uL MTT solution was added to each well. After 5 minutes on a shaking table at150 rpm to thoroughly mix the MTT into the media, it was incubated (37C, 5% CO2) for 4 hours to allow the MTT to be metabolized. Formazan (MTT metabolic product) was resuspended in 200 uL DMSO and shaken at 150 rpm for 5 minutes to thoroughly mix the formazan into the solvent. The optical density was measured at 560 nm, and the background was subtracted at 620 nm. Finally, the IC50 of the test compound in comparison to the reference was calculated using the GraphPad Prism software.

[7] = tested on: normal Vero cells; test: MTT cytotoxicity assay, normal Vero cells; type: cell-based; conditions: Vero; for IC50: Chlorocebus sabaeus, supplement viability lab report; for Toxicity %: MTT
Description: as §2
1.1.In-vitro cytotoxicity screening
as §3, §4

[8] = target: human recombinant PLK1 (Homo sapiens, UniProt P53350); test: PLK1 inhibitory activity assay (ADP-Glo Kinase Assay); type: biochemical; conditions: for %inh: PLK1 Lab Report; for IC50: mean of three independent experiments, read-out: PLK1 IC50 ± SD
[9] = MTT, mean of three independent experiments ± SD, read-out: IC50 Value HT-29
[10] = supplement viability lab report, HT29, read-out: IC50 ± SD
[11] = MTT, mean of three independent experiments ± SD, read-out: IC50 Value U-937
[12] = supplement viability lab report, U937, read-out: IC50 ± SD
[13] = MTT, mean of three independent experiments ± SD, read-out: IC50 Value MDA-MB-231
[14] = supplement viability lab report, read-out: IC50 ± SD

Chain of human recombinant PLK1 (P53350 whole entry): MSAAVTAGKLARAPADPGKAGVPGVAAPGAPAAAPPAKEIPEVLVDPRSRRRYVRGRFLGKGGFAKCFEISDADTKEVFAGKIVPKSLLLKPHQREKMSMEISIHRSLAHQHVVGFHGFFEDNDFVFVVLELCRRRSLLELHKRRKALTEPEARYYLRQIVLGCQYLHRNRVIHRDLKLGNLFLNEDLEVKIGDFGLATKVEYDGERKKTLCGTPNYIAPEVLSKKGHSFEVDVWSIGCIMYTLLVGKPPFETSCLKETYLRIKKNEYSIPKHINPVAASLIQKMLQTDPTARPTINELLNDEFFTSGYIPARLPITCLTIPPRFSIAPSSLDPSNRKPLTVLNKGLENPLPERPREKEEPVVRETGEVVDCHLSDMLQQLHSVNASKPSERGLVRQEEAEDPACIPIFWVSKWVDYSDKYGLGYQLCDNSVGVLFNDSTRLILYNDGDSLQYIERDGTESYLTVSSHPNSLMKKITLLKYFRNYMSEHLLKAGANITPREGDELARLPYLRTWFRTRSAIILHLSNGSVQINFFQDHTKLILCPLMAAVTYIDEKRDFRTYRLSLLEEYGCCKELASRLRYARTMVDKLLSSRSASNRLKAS

With `CCn1c(N)c(/N=C(/CBr)c2ccc(OC)cc2)c(=O)[nH]c1=O` [Compound 6a, (E)-6-Amino-5-((2-bromo-1-(4-methoxyphenyl)ethylidene)amino)-1-ethylpyrimidine-2,4(1H,3H)-dione] the “%inh” value ([1]; conc 0.01 (unit not given)) was 34%, the “%inh” value ([1]; conc 0.1 (unit not given)) was 49% and the “%inh” value ([1]; conc 1 (unit not given)) was 73%. The “%inh” value ([1]; conc 10 (unit not given)) was 88%, the “%inh” value ([1]; conc 100 (unit not given)) was 95% and the IC50 [1] was 141 ± 6 nM. The Toxicity % ([2]; HT29, MTT, 0.312 uM) was 0.3876%, the Toxicity % ([2]; HT29, MTT, 0.625 uM) was 0.04307% and the Toxicity % ([2]; HT29, MTT, 1.25 uM) was 26.57%. For the same molecule, the Toxicity % ([2]; HT29, MTT, 2.5 uM) was 89.88%, the Toxicity % ([2]; HT29, MTT, 5 uM) was 95.95% and the Toxicity % ([2]; HT29, MTT, 10 uM) was 95.74%. For the same molecule, the viability at 0.312 µM ([2]; HT29, MTT, 0.312 uM) was 99.6%, the viability at 0.625 µM ([2]; HT29, MTT, 0.625 uM) was 100% and the viability at 1.25 µM ([2]; HT29, MTT, 1.25 uM) was 73.4%. The viability at 2.5 µM ([2]; HT29, MTT, 2.5 uM) was 10.1%, the viability at 5 µM ([2]; HT29, MTT, 5 uM) was 4.05% and the viability at 10 µM ([2]; HT29, MTT, 10 uM) was 4.26%. For the same molecule, the IC50 [2, 9] was 750 ± 10 nM, the IC50 [2, 10] was 1690 nM and the “Selectivity Indices (SI) HT-29” value [2] was 2.75. For the same molecule, the viability at 0.312 µM [3] was 99.1%, the viability at 0.625 µM [3] was 96.1% and the viability at 1.25 µM [3] was 40.3%. The viability at 2.5 µM [3] was 14.5%, the viability at 5 µM [3] was 13.2% and the viability at 10 µM [3] was 9.91%. The IC50 [4, 11] was 970 ± 10 nM, the IC50 [4, 12] was 1120 nM and the “Selectivity Indices (SI) U-937” value [4] was 2.12. The Toxicity % ([4]; U937, MTT, 0.312 uM) was 0.8715%, the Toxicity % ([4]; U937, MTT, 0.625 uM) was 3.867% and the Toxicity % ([4]; U937, MTT, 1.25 uM) was 59.69%. For the same molecule, the Toxicity % ([4]; U937, MTT, 2.5 uM) was 85.46%, the Toxicity % ([4]; U937, MTT, 5 uM) was 86.76% and the Toxicity % ([4]; U937, MTT, 10 uM) was 90.09%. The IC50 [5, 13] was 630 ± 10 nM, the viability at 0.312 µM ([5]; MTT, 0.312 uM) was 100% and the viability at 0.625 µM ([5]; MTT, 0.625 uM) was 98.9%. It also gave a viability at 1.25 µM ([5]; MTT, 1.25 uM) of 27.1%, a viability at 2.5 µM ([5]; MTT, 2.5 uM) of 5.98% and a viability at 5 µM ([5]; MTT, 5 uM) of 3.37%. The viability at 10 µM ([5]; MTT, 10 uM) was 4.03%, the IC50 [5, 14] was 1000 nM and the Toxicity % ([5]; MTT, 0.312 uM) was 0.04433%. The Toxicity % ([5]; MTT, 0.625 uM) was 1.064%, the Toxicity % ([5]; MTT, 1.25 uM) was 72.92% and the Toxicity % ([5]; MTT, 2.5 uM) was 94.02%. The Toxicity % ([5]; MTT, 5 uM) was 96.63%, the Toxicity % ([5]; MTT, 10 uM) was 95.97% and the “Selectivity Indices (SI) MDA-MB-231” value [5] was 3.27. For the same molecule, the IC50 [6] was 2060 ± 30 nM, the viability at 0.312 µM [6] was 99.8% and the viability at 0.625 µM [6] was 99.2%. For the same molecule, the viability at 1.25 µM [6] was 83.6%, the viability at 2.5 µM [6] was 26.8% and the viability at 5 µM [6] was 11.6%. It also gave a viability at 10 µM [6] of 4.59%, an IC50 [7] of 1950 nM and a Toxicity % ([7]; 0.312 uM) of 0.1996%. For the same molecule, the Toxicity % ([7]; 0.625 uM) was 0.7585%, the Toxicity % ([7]; 1.25 uM) was 16.37% and the Toxicity % ([7]; 2.5 uM) was 73.21%. The Toxicity % ([7]; 5 uM) was 88.38%, the Toxicity % ([7]; 10 uM) was 95.41% and the “%inh” value ([8]; conc 0.01 (unit not given)) was 25%. For the same molecule, the “%inh” value ([8]; conc 0.1 (unit not given)) was 42%, the “%inh” value ([8]; conc 1 (unit not given)) was 65% and the “%inh” value ([8]; conc 10 (unit not given)) was 87%. For the same molecule, the “%inh” value ([8]; conc 100 (unit not given)) was 94% and the IC50 [8] was 218 ± 10 nM.
In the case of `COc1ccc(/C(CBr)=N\c2c(N)n(Cc3ccccc3Cl)c(=O)[nH]c2=O)cc1` [Compound 6b, (E)-6-Amino-5-((2-bromo-1-(4-methoxyphenyl)ethylidene)amino)-1-(2-chlorobenzyl) pyrimidine-2,4(1H,3H)-dione], the “%inh” value ([1]; conc 0.01 (unit not given)) is reported as 30%, the “%inh” value ([1]; conc 0.1 (unit not given)) is reported as 46% and the “%inh” value ([1]; conc 1 (unit not given)) is reported as 67%. For the same molecule, the “%inh” value ([1]; conc 10 (unit not given)) was 83%, the “%inh” value ([1]; conc 100 (unit not given)) was 94% and the IC50 [1] was 77 ± 3 nM. For the same molecule, the Toxicity % ([2]; HT29, MTT, 0.312 uM) was 0.3876%, the Toxicity % ([2]; HT29, MTT, 0.625 uM) was 47.33% and the Toxicity % ([2]; HT29, MTT, 1.25 uM) was 95.82%. It also gave a Toxicity % ([2]; HT29, MTT, 2.5 uM) of 95.95%, a Toxicity % ([2]; HT29, MTT, 5 uM) of 95.61% and a Toxicity % ([2]; HT29, MTT, 10 uM) of 93.71%. The viability at 0.312 µM ([2]; HT29, MTT, 0.312 uM) was 99.6%, the viability at 0.625 µM ([2]; HT29, MTT, 0.625 uM) was 52.7% and the viability at 1.25 µM ([2]; HT29, MTT, 1.25 uM) was 4.18%. For the same molecule, the viability at 2.5 µM ([2]; HT29, MTT, 2.5 uM) was 4.05%, the viability at 5 µM ([2]; HT29, MTT, 5 uM) was 4.39% and the viability at 10 µM ([2]; HT29, MTT, 10 uM) was 6.29%. The IC50 [2, 9] was 1690 ± 10 nM, the IC50 [2, 10] was 750 nM and the “Selectivity Indices (SI) HT-29” value [2] was 1.15. The viability at 0.312 µM [3] was 99.1%, the viability at 0.625 µM [3] was 77.5% and the viability at 1.25 µM [3] was 28%. The viability at 2.5 µM [3] was 12.2%, the viability at 5 µM [3] was 10.4% and the viability at 10 µM [3] was 9.69%. For the same molecule, the IC50 [4, 11] was 1120 ± 20 nM, the IC50 [4, 12] was 970 nM and the “Selectivity Indices (SI) U-937” value [4] was 1.74. It also gave a Toxicity % ([4]; U937, MTT, 0.312 uM) of 0.9259%, a Toxicity % ([4]; U937, MTT, 0.625 uM) of 22.49% and a Toxicity % ([4]; U937, MTT, 1.25 uM) of 72%. The Toxicity % ([4]; U937, MTT, 2.5 uM) was 87.8%, the Toxicity % ([4]; U937, MTT, 5 uM) was 89.6% and the Toxicity % ([4]; U937, MTT, 10 uM) was 90.31%. The IC50 [5, 13] was 1000 ± 20 nM, the viability at 0.312 µM ([5]; MTT, 0.312 uM) was 84.9% and the viability at 0.625 µM ([5]; MTT, 0.625 uM) was 26.6%. It also gave a viability at 1.25 µM ([5]; MTT, 1.25 uM) of 10.2%, a viability at 2.5 µM ([5]; MTT, 2.5 uM) of 8.47% and a viability at 5 µM ([5]; MTT, 5 uM) of 8.55%. For the same molecule, the viability at 10 µM ([5]; MTT, 10 uM) was 4.7%, the IC50 [5, 14] was 630 nM and the Toxicity % ([5]; MTT, 0.312 uM) was 15.07%. The Toxicity % ([5]; MTT, 0.625 uM) was 73.45%, the Toxicity % ([5]; MTT, 1.25 uM) was 89.85% and the Toxicity % ([5]; MTT, 2.5 uM) was 91.53%. The Toxicity % ([5]; MTT, 5 uM) was 91.45%, the Toxicity % ([5]; MTT, 10 uM) was 95.3% and the “Selectivity Indices (SI) MDA-MB-231” value [5] was 1.95. The IC50 [6] was 1950 ± 50 nM, the viability at 0.312 µM [6] was 99.1% and the viability at 0.625 µM [6] was 99.1%. For the same molecule, the viability at 1.25 µM [6] was 70.3%, the viability at 2.5 µM [6] was 38.4% and the viability at 5 µM [6] was 12.8%. For the same molecule, the viability at 10 µM [6] was 6.15%, the IC50 [7] was 2060 nM and the Toxicity % ([7]; 0.312 uM) was 0.9182%. It also gave a Toxicity % ([7]; 0.625 uM) of 0.8782%, a Toxicity % ([7]; 1.25 uM) of 29.74% and a Toxicity % ([7]; 2.5 uM) of 61.6%. The Toxicity % ([7]; 5 uM) was 87.19%, the Toxicity % ([7]; 10 uM) was 93.85% and the “%inh” value ([8]; conc 0.01 (unit not given)) was 28%. The “%inh” value ([8]; conc 0.1 (unit not given)) was 40%, the “%inh” value ([8]; conc 1 (unit not given)) was 65% and the “%inh” value ([8]; conc 10 (unit not given)) was 80%. The “%inh” value ([8]; conc 100 (unit not given)) was 94% and the IC50 [8] was 204 ± 9 nM.
